The results in this text go back to patent US20040191203A1, “Cosmetic or dermatological composition comprising n-acylaminoamide derivatives” (priority 2001, published 2004).

Test [1] addresses T1, human leukocyte elastase (HLE) (Homo sapiens, UniProt P08246).
T1 sequence (P08246 30-267): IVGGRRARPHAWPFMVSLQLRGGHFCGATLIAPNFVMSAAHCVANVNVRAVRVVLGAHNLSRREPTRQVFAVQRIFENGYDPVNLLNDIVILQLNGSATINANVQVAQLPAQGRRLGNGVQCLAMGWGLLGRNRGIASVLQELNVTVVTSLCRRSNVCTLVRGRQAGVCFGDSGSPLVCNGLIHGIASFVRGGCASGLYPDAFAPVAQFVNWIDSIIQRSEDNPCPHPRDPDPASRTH
The experiment in a line: anti-elastase activity relative to human leukocyte elastase, Me-OSAAPV-p-NA substrate, spectrophotometry. The class given is biochemical. As for the experimental part:
The anti-elastase activity of compounds according to the invention has been determined relative to human leukocyte elastase (HLE).
The test is performed as follows. […]
The inhibition % of the control elastase activity is then determined through spectrophotometry.

For test [2], the system named is surviving human skins treated by human leukocyte elastase (HLE). Put plainly: ex vivo activity on fresh cuts of surviving human skins treated by HLE for 2 hours, elastic fibre morphometry. As to conditions: 20° C. As for the experimental part: The ex vivo activity of the compound in example 2 has been evaluated on surviving human skins treated by human leukocyte elastase (HLE). Fresh cuts from human skins, originating from 2 different donors, are treated for 2 hours, at 20° C., by 20 μl of a buffer solution (pH 7.4) optionally comprising 10 μg/ml of HLE and optionally 0.1% of the compound to be tested, optionally previously put in a solution in ethanol. The elastic fibres are coloured in blue using (+) catechin and are morphometrically quantified by computer assisted picture analysis. The surface percentage of average dermis occupied by the elastic fibres was evaluated this way.

The test system is the same in test [3]. The experiment in a line: ex vivo activity on human skin fragments kept surviving 10 days in culture with HLE, elastic fibre morphometry. As to conditions: HLE 0.5 μg per ml of medium + 5 μl of compound at 0.2% in ethanol every other day, 37° C., 3 donors. The procedure:
The ex vivo activity of the compound in example 2 has been evaluated on surviving human skins treated by human leukocyte elastase (HLE). Fragments of normal human skin, originating from 3 different donors, are placed in inserts positioned in culture wells. Some antibiotic supplemented culture medium is added in the bottom of the wells. A passage occurs through slow diffusion between both compartments by means of a porous membrane (pore size: 12 μm). The culture medium is renewed every three days. Optionally 0.5 μg of HLE per ml of culture medium are optionally added on the skin fragments. Also are added, every other day, 5 μl of the compound to be tested, previously put in a solution at 0.2% in weight in ethanol. The skins are kept surviving for 10 days at 37° C. The elastic fibres are coloured in blue using (+) catechin and are morphometrically quantified by computer assisted picture analysis. The surface percentage of average dermis occupied by the elastic fibres was evaluated this way.

In test [4] the test system is surviving UVA irradiated human skins (8 J/cm^2). Put plainly: activity on surviving UVA irradiated human skins, morphometry of elastic fibres and collagen. As to conditions: UVA 8 J/cm^2 + 5 μl of compound at 0.2% in ethanol every two days; 7 days, 37° C.; four donors. As for the experimental part: The activity of the compound in example 2 has been evaluated on surviving UVA irradiated human skins (8 J/cm^2). Fragments of normal human skin, originating from four different donors, are placed in inserts positioned in culture wells. Some antibiotic supplemented culture medium is added in the bottom of the wells. A passage occurs through slow diffusion between both compartments by means of a porous membrane (pore size: 12 μm). The culture medium is renewed every three days. On the skin fragments, every two days, are added 5 μl of the compound to be tested, previously put in a solution at 0.2% in ethanol. The skins are kept surviving for 7 days at 37° C. The skins are irradiated once at 8 J/cm^2 at 37° C. (Vilbert-Lourmat lamp, RMX-3W). The elastic fibres are coloured in blue using (+) catechin and are morphometrically quantified by computer assisted picture analysis. The surface percentage of average dermis occupied by the elastic fibres was evaluated this way.

As for `CC(=O)N(c1cccc(C(F)(F)F)c1)C(C(=O)NCC(=O)O)C(C)C` (centres unmarked) [Compound A, {2-[acetyl-(3-trifluoromethyl-phenyl)-amino]-3-methyl-butyrylamino}acetic acid], the “Inhibition % of the control elastase activity” value in test [1] (concentration of compound A 0.2%) is reported as 68%. Besides, in test [1] (even in a low amount), the “inhibition of the elastase activity (in words)” value is listed as “strong inhibition”. Also, the “Surface % occupied by the elastic fibres” value in test [2] (Skin 1, HLE 10 μg/ml + 0.1% compound) is reported as 13.95%; in test [2] (Skin 2, HLE 10 μg/ml + 0.1% compound), 11.85%; in test [3], 7.1%. For the same molecule, in test [4], the “Morphometric analysis of the collagen (superficial dermis)” value came to 92%. Moreover, the “Morphometric analysis of the elastic fibres (superficial dermis)” value in test [4] is reported as 6.8%.
For `CCOC(=O)CNC(=O)C(C(C)C)N(Cc1ccccc1)C(=O)CP(=O)(OCC)OCC` (centres unmarked) [Compound B, ethyl (2-{benzyl-[(diéethoxyphosphoryl)-acetyl]-amino}-3-méthylbutyrylamino) acetate], the “Inhibition % of the control elastase activity” value in test [1] (compound concentration 0.1%, HLE 40 milli-units per ml, 37° C., 60 minutes) amounted to 17%.
